Results from patent publication US12187709B2 (Genentech, Inc., priority 2021, dated 2025).

Legend:
Cbl-b = Cbl-b (Homo sapiens (Human), UniProt Q13191); test: Cbl-b LCK Ub TR-FRET assay (Cbl-b Lck HTRF); assay type: biochemical; details: for IC50: Cbl-b LCK Ub TR-FRET; for fold-selectivity (Cbl-b over C-cbl) / (fold-selectivity) Cbl-b and C-Cbl Selectivity: ratio C-cbl Lck HTRF IC50 / Cbl-b Lck HTRF IC50
Summary of the method: (§1)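 Detection reagents added, brief spin, 20 min RT. IC50 fit normalized to no-LCK (low) and DMSO (high) controls.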

c-Cbl = c-Cbl (Homo sapiens (Human), UniProt P22681); test: C-Cbl LCK Ub TR-FRET assay (C-cbl Lck HTRF); assay type: biochemical
c-Cbl, sequence (P22681 47-435): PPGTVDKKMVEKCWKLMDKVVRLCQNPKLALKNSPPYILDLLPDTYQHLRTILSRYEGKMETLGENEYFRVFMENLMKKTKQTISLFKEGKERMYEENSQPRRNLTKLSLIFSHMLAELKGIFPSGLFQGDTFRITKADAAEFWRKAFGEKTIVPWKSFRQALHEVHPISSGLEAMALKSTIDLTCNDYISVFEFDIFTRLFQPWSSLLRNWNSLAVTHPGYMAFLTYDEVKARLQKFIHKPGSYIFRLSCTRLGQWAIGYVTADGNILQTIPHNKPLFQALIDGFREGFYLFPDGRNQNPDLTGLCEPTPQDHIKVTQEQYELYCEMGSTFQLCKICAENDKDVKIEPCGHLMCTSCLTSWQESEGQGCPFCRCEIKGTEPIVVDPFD
Summary of the method: as §1

[1] = target: Human Cbl-b (residues 40-426) (Homo sapiens (Human), UniProt Q13191); test: Cbl-b SPR assay; assay type: binding; details: for Fold of selectivity: C-cbl SPR Kd vs Cbl-b SPR Kd; for Kd: SPR, 20° C.
Human Cbl-b (residues 40-426), sequence (Q13191 40-426): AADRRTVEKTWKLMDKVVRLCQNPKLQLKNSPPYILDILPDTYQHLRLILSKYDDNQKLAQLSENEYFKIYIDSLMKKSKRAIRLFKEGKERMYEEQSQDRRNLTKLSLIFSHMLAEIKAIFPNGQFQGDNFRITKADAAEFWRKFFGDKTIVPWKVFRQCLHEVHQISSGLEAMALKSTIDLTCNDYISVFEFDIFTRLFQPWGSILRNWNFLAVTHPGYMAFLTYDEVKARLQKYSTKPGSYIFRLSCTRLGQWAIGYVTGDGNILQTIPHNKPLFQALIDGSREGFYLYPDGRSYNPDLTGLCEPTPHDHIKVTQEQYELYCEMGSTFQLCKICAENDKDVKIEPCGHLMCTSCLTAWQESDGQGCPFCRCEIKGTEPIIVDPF
Summary of the method: (§2)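 First, protein is captured to 1300-1500 RU. Then compound runs in single cycle kinetics, a blank plus 5 two-fold concentrations up to 500 nM (120 s contact, 50 μl/min, 450 s dissociation). Chaser injections (20 s, 30 μl/min) track occupancy, giving kd, which is fixed when fitting the titration.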

c-Cbl (residues 47-435) = c-Cbl (residues 47-435) (Homo sapiens (Human), UniProt P22681); test: c-Cbl SPR assay; assay type: binding; details: 20° C.
c-Cbl (residues 47-435), sequence (P22681 47-435): as the sequence (P22681 47-435) above
Summary of the method: as §2

Cbl-b, sequence (Q13191 40-426): as the sequence (Q13191 40-426) above

SMILES | IC50 (Cbl-b) [nM] | fold-selectivity (Cbl-b over C-cbl) (Cbl-b) | IC50 (c-Cbl) [nM] | Fold of selectivity [1] [×] | Kd [1] [nM] | Kd (c-Cbl (residues 47-435)) [nM] | IC50 (Cbl-b; Example 121) [nM] | (fold-selectivity) Cbl-b and C-Cbl Selectivity (Cbl-b) [x]
CC(=O)N1CC([C@@H](c2cccc(N3Cc4c(cc(CNC5(C)CCC5)cc4C(F)(F)F)C3=O)c2)c2nncn2C)C1 (single isomer, unassigned) [Compound 402] | 580 | 4.3x | 2500 | 3.4 | 890 | 2800 |  | 
Cn1cnnc1[C@]1(c2cccc(N3Cc4c(cc(CNC5(C)CCC5)cc4C(F)F)C3=O)c2)C[C@@H](Cl)C1 [Compound 447, 2-(3-((1r,3r)-3-chloro-1-(4-methyl-4H-1,2,4-triazol-3-yl)cyclobutyl)phenyl)-4-(difluoromethyl)-6-(((1-methylcyclobutyl)amino)methyl)isoindolin-1-one] |  |  | 6.2 | 5.3 | 0.3 | 1.6 | 4.5 | 1.4
CO[C@H]1C[C@](c2cccc(N3Cc4c(cc(CNCC5CC56CC6(F)F)cc4C(F)(F)F)C3=O)c2)(c2nncn2C)C1 (stereo partly drawn) [Compound 510] |  |  | 51 | 18 | 3.4 | 60 | 12 | 4.2
Cn1cnnc1C1(c2cc(NC3CCCC3)nc(N3Cc4c(cc(CNC5(C)CCC5)cc4C(F)(F)F)C3=O)c2)CC2(COC2)C1 [Compound 188, 2-(6-(cyclopentylamino)-4-(6-(4-methyl-4H-1,2,4-triazol-3-yl)-2-oxaspiro[3.3]heptna-6-yl)pyridin-2-yl)-6-(((1-methylcyclobutyl)amino)methyl)-4-(trifluoromethyl)isoindolin-1-one] | 16 | 11x | 180 | 22 | 4.7 | 100 |  | 
Cn1cnnc1[C@]1(c2cccc(N3Cc4c(cc(CNC5(C)CCC5)cc4C(F)(F)F)C3=O)c2)C[C@H](O)C1 [Compound 21, 2-(3-((1s,3s)-3-hydroxy-1-(4-methyl-4H-1,2,4-triazol-3-yl)cyclobutyl)phenyl)-6-(((1-methylcyclobutyl)amino)methyl)-4-(trifluoromethyl)isoindolin-1-one] | 18 | (2.3x) | 41 | 5.3 | 4.1 | 22 |  | 
Cn1cnnc1C(c1cccc(N2Cc3c(cc(CNC4(C)CCC4)cc3C(F)(F)F)C2=O)c1)[C@H]1C[C@@H](CC#N)C1 (single isomer, unassigned) [Compound 362] | 6 | 6.3x | 38 | 21 | 2.9 | 59 |  | 
Cn1cnnc1[C@@](O)(c1cccc(N2Cc3c(cc(CNC4(C)CCC4)cc3C(F)(F)F)C2=O)c1)C(F)(F)F (single isomer, unassigned) [Compound 308] | 27 | 1.5x | 41 | 1.5 | 37 | 56 |  | 
Cn1cnnc1C1(c2cccc(N3Cc4c(cc(CNC5(C)CCC5)cc4C(F)(F)F)C3=O)c2)CC2(C1)OCCO2 [Compound 293, 2-(3-(2-(4-methyl-4H-1,2,4-triazol-3-yl)-5,8-dioxaspiro[3.4]octan-2-yl)phenyl)-6-(((1-methylcyclobutyl)amino)methyl)-4-(trifluoromethyl)isoindolin-1-one] | 64 | 3.0x | 190 | 4.0 | 53 | 200 |  | 
CO[C@H]1C[C@@](O)(C(c2cccc(N3Cc4c(cc(CNC5(C)CCC5)cc4C(F)(F)F)C3=O)c2)c2nncn2C)C1 (single isomer, unassigned) [Compound 369] | 240 | 4.3x | 1000 | 7.2 | 210 | 1500 |  | 
Cn1cnnc1C1(c2cccc(N3Cc4c(cc(CNC5(C)CCC5)cc4C(F)(F)F)C3=O)c2)CN(C2COC2)C1 [Compound 111, 2-(3-(3-(4-methyl-4H-1,2,4-triazol-3-yl)-1-(oxetan-3-yl)azetidin-3-yl)phenyl)-6-(((1-methylcyclobutyl)amino)methyl)-4-(trifluoromethyl)isoindolin-1-one] | 4900 | 4.1x | 20000 | 8.6 | 3600 | 31000 |  | 
Cn1cnnc1C(c1cccc(N2Cc3c(cc(CNC4(C)CCC4)cc3C(F)(F)F)C2=O)c1)[C@H]1C[C@@H](Cl)C1 (single isomer, unassigned) [Compound 357] | 5.2 | 1.4x | 7.1 | 5.5 | 0.4 | 2.2 |  | 
CC[C@@H](NC1(C)CCC1)c1cc2c(c(C(F)(F)F)c1)CN(c1cccc([C@@H](c3nncn3C)C3COC3)c1)C2=O (single isomer, unassigned) [Compound 316] | 270 | 11x | 3100 | 7.5 | 170 | 1300 |  | 
CO[C@H]1C[C@@](c2cc(NC3CCC3)cc(N3Cc4c(cc(CNC5(C)CCC5)cc4C(F)(F)F)C3=O)c2)(c2nncn2C)C1 [Compound 217, 2-(3-(cyclobutylamino)-5-((1s,3s)-3-methoxy-1-(4-methyl-4H-1,2,4-triazol-3-yl)cyclobutyl)phenyl)-6-(((1-methylcyclobutyl)amino)methyl)-4-(trifluoromethyl)isoindolin-1-one] | 18 | 5.5x | 97 | 13 | 7.5 | 91 |  | 
COCCC1(NCc2cc3c(c(C(F)(F)F)c2)CN(c2cccc([C@]4(c5nncn5C)C[C@H](OC)C4)c2)C3=O)CCC1 [Compound 493, 2-(3-((1r,3r)-3-methoxy-1-(4-methyl-4H-1,2,4-triazol-3-yl)cyclobutyl)phenyl)-6-(((1-(2-methoxyethyl)cyclobutyl)amino)methyl)-4-(trifluoromethyl)isoindolin-1-one] |  |  | 230 | 7.8 | 18 | 140 | 28 | 8.5
Cn1cnnc1[C@H](c1cc(Cl)cc(N2Cc3c(cc(CNC4(C)CCC4)cc3C(F)(F)F)C2=O)c1)C1COC1 (single isomer, unassigned) [Compound 409] |  |  | 57 | 1.4 | 62 | 90 | 52 | 1.1
CC[C@H]1C[C@](c2cccc(N3Cc4c(cc(CNC5(C)CCC5)cc4C(F)(F)F)C3=O)c2)(c2nncn2C)C1 [Compound 455, 2-(3-((1s,3r)-3-ethyl-1-(4-methyl-4H-1,2,4-triazol-3-yl)cyclobutyl)phenyl)-6-(((1-methylcyclobutyl)amino)methyl)-4-(trifluoromethyl)isoindolin-1-one] |  |  | 20 | 11 | 1.4 | 15 | 8.7 | 2.3
CC(C)[C@H]1CN(C)CCN1Cc1cc2c(c(C(F)F)c1)CN(c1cccc(C3(c4nncn4C)CC4(COC4)C3)c1)C2=O.O=CO.O=CO [Compound 198, (S)-4-(difluoromethyl)-6-((2-isopropyl-4-methylpiperazin-1-yl)methyl)-2-(3-(6-(4-methyl-4H-1,2,4-triazol-3-yl)-2-oxaspiro[3.3]heptan-6-yl)phenyl)isoindolin-1-one formate] | 46 | 4.4x | 200 | 5.1 | 29 | 120 |  | 
CC[C@H]1C[C@@](c2cccc(N3Cc4c(cc(CNC5(C)CCC5)cc4C(F)(F)F)C3=O)c2)(c2nncn2C)C1 [Compound 454, 2-(3-((1r,3s)-3-ethyl-1-(4-methyl-4H-1,2,4-triazol-3-yl)cyclobutyl)phenyl)-6-(((1-methylcyclobutyl)amino)methyl)-4-(trifluoromethyl)isoindolin-1-one] |  |  | 16 | 11 | 0.85 | 9.2 | 6.5 | 2.4
CO[C@H]1C[C@](c2cccc(N3Cc4c(cc(CNCC5(CF)CCC5)cc4C(F)(F)F)C3=O)c2)(c2nncn2C)C1 [Compound 507, 6-((((1-(fluoromethyl)cyclobutyl)methyl)amino)meth-yl)-2-(3-((1r,3r)-3-methoxy-1-(4-methyl-4H-1,2,4-triazol-3-yl)cyclobutyl)phenyl)-4-(trifluoromethyl)isoindolin-1-one] |  |  | 42 | 15 | 3.5 | 52 | 9.3 | 4.5
Cn1cnnc1[C@]1(c2cccc(N3Cc4c(cc(CNC5(C)CCC5)cc4C(F)(F)F)C3=O)c2)C[C@](C)(O)C1 [Compound 26, 2-(3-((1s,3s)-3-hydroxy-3-methyl-1-(4-methyl-4H-1,2,4-triazol-3-yl)cyclobutyl)phenyl)-6-(((1-methylcyclobutyl)amino)methyl)-4-(trifluoromethyl)isoindolin-1-one] | 30 | (3.3x) | 99 | 9.0 | 10 | 90 |  | 
